# From ChEMBL document CHEMBL1201862, “PubChem BioAssay data set” (2004)
# Activity calls are given as the source filed them.
# Tests used:
# [1] = target: Voltage-gated inwardly rectifying potassium channel KCNH2 (Homo sapiens, UniProt Q12809); settings: Potency;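 also: confirmatory quantitative high-throughput screen measuring inhibition of hERG channel activity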
# Cytochrome P450 2C19 = Cytochrome P450 2C19 (Homo sapiens, UniProt P33261); experiment: Cytochrome panel assay with activity outcomes. Panel member name: p450-cyp2c19 Compounds with AC50 equal or less than 10 uM are considered active; type: functional; settings: read-out: AC50
# Cytochrome P450 2C9 = Cytochrome P450 2C9 (Homo sapiens, UniProt P11712)
# [2] = viability of uninfected HEp-2 cells – cell-based, HTS, cytotoxicity control for RSV inhibitor project, dose response (AID 2410); type: functional; settings: human respiratory syncytial virus
# [3] = viability loss of HMLE_sh_eGFP cells – cell-based, luminescence, counter-screen for HMLE_sh_ECad selective toxicity project, dose response (AID 463074); type: functional, Homo sapiens;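 also: HMLE human mammary epithelial cells expressing control shRNA against eGFP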
# [4] = Luminescence Cell-Based Dose Retest to Confirm Inhibitors of Cancer Stem Cells. [Related pubchem assays (depositor defined):AID2717, AID2721]; type: functional; settings: Homo sapiens
# [5] = Trypanosoma cruzi growth suppression in host cells – NIH3T3 host cells, beta-gal luminescence, confirmation (AID 2044); type: functional, cell-based;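 also: intracellular parasites grown in NIH/3T3 mouse fibroblasts as host cells; luminescent beta-galactosidase reporter signal from transgenic T. cruzi replicating inside host cells; inhibitors lower the luminescence signal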
# [6] = NIH3T3 cell viability loss – ATP luminescence, mouse fibroblasts, counter-screen, dose response (AID 2010); type: functional, cell-based;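 also: cells exposed to compound for about 90 hours before reading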
# [7] = target: T1, Runt-related transcription factor 1/Core-binding factor subunit beta (Homo sapiens, UniProt Q01196+Q13951); experiment: Runt domain/CBFb-SMMHC interaction disruptors – biochemical, TR-FRET (AID 1438); type: protein assay
# [8] = target: T1, Runt-related transcription factor 1/Core-binding factor subunit beta; experiment: disruptors of Runt domain/CBFb-SMMHC interaction – biochemical, FRET, Cerulean-Runt, Venus-CBFb-SMMHC, uHTS, […] (AID 1434); type: protein assay
# [9] = target: T2, Intestinal-type alkaline phosphatase (Homo sapiens, UniProt P09923); experiment: human intestinal alkaline phosphatase activators, dose response, biochemical, luminescence, uHTS hits (AID 463120); type: functional
# [10] = target: Intestinal-type alkaline phosphatase (Mus musculus, UniProt P24822); experiment: PubChem AID 488874; type: functional
# [11] = target: T2, Intestinal-type alkaline phosphatase; experiment: activation of human intestinal alkaline phosphatase – biochemical, luminescent, uHTS hits, set 2, dose response (AID 488817); type: functional;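 also: potency of activators that raise enzyme activity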
# [12] = target: T3, Alkaline phosphatase, tissue-nonspecific isozyme (Homo sapiens, UniProt P05186); experiment: activation of tissue-nonspecific alkaline phosphatase – biochemical, TNAP isozyme, human IAP uHTS hits, selectivity assay for human IAP activator project, dose response (AID 488886); type: functional;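 also: potency of compounds raising TNAP activity as a selectivity check on IAP activators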
# T3 sequence (P05186 whole entry): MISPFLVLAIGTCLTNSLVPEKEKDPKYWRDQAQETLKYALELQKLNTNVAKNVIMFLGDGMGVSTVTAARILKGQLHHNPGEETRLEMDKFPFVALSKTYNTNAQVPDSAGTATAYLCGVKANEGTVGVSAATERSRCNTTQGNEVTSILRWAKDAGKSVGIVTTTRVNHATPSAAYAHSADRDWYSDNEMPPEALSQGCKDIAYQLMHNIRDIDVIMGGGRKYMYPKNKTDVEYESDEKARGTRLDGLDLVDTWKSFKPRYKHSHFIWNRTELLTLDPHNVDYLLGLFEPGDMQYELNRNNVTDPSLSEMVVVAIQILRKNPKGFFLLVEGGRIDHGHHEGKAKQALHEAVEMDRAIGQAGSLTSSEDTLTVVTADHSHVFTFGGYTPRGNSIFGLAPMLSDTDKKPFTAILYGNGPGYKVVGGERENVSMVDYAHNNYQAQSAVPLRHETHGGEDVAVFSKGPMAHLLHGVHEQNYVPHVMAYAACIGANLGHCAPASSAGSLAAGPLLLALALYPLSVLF
# [13] = target: T4, High affinity choline transporter 1 (Homo sapiens, UniProt Q9GZV3); experiment: human choline transporter blockers, potency – cell-based, 5-point CRC, membrane potential dye, dose response (AID 504840); type: functional
# T4 sequence (Q9GZV3 whole entry): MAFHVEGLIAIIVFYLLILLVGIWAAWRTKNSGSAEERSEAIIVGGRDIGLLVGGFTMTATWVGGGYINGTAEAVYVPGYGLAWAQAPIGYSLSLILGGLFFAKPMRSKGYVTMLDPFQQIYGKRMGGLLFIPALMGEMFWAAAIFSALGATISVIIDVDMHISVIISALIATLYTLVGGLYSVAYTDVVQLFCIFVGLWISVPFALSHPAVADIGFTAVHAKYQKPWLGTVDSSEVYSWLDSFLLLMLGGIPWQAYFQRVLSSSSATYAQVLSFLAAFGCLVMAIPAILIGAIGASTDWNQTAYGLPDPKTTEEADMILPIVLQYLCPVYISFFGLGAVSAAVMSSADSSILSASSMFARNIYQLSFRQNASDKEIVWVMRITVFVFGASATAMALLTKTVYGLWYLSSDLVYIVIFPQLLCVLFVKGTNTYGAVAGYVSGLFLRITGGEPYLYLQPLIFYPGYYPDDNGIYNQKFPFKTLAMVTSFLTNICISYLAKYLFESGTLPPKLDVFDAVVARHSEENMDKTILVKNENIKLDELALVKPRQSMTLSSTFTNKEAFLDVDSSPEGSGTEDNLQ
# [14] = HIV-1 AD8 envelope cell-cell fusion blockers – cherry-pick, dose response (AID 652062); type: functional, cell-based;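 also: luciferase signal from cell-cell fusion driven by HIV-1 clade B AD8 Env; potency is for inhibitors of fusion seen as a drop in luminescence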
# [15] = target: T5, Nucleotide-binding oligomerization domain-containing protein 1 (Homo sapiens, UniProt Q9Y239); experiment: blockers of NOD1 pathway activity – revised, SAR follow-up (AID 2333); type: functional
# T5 sequence (Q9Y239 whole entry): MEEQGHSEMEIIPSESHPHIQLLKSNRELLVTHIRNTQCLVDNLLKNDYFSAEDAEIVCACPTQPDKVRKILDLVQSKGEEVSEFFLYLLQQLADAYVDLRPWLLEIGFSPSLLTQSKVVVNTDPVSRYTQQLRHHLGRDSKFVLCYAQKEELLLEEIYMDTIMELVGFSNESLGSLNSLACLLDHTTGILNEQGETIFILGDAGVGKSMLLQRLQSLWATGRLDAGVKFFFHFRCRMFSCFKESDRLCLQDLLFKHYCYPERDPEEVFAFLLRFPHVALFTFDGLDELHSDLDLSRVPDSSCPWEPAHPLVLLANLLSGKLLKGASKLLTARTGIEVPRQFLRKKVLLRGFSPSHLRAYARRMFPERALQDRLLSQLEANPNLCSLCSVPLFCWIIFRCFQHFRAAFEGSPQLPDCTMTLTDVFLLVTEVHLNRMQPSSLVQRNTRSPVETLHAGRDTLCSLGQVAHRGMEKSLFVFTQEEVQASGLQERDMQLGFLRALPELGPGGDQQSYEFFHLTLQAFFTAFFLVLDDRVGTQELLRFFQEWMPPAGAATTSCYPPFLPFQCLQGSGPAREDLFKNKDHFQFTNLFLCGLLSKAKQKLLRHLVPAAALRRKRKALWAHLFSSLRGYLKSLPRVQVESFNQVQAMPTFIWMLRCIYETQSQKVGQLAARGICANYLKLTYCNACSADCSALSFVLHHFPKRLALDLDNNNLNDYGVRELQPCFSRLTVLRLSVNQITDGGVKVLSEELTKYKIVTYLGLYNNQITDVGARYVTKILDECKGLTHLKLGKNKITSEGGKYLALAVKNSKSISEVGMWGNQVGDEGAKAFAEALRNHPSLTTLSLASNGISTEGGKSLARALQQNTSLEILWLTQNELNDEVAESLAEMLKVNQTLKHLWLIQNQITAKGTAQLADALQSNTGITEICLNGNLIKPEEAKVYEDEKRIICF
# Tumor necrosis factor = Tumor necrosis factor (Homo sapiens, UniProt P01375); experiment: analog potency on TNFa NF-kB signaling – cell-based, revised, SAR follow-up (AID 2337); type: functional
# [16] = target: T6, COUP transcription factor 2 (Homo sapiens, UniProt P24468); experiment: Luminescence-based cell-based high throughput dose response assay to identify inhibitors of COUP-TFII (NR2F2).; type: functional;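 also: HEK293 cells transiently cotransfected with COUP-TFII expression vector and reporter; luciferase reporter luminescence driven by COUP-TFII from the pX2-168 reporter plasmid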
# T6 sequence (P24468 whole entry): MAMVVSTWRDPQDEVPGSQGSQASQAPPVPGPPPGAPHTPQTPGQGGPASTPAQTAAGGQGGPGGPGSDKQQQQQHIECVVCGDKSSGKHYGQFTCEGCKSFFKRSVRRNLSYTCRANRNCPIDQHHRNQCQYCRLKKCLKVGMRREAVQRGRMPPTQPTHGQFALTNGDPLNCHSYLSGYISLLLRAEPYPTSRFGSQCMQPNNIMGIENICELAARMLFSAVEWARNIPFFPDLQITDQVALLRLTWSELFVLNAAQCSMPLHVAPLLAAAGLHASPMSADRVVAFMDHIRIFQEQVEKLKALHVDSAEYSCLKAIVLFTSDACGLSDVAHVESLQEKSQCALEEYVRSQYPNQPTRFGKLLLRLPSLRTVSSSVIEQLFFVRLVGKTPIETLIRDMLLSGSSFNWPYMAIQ
# HEK293 = experiment: cells; settings: Homo sapiens;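 also: cells exposed to compound for 14 hours overnight before viability readout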
# [17] = blockers of HIV-1 ZM109 envelope-driven cell-cell fusion – HeLa effector, CEM target cells, luciferase, cherry-pick, dose response (AID 652058); type: functional, cell-based;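 also: luciferase signal from HIV-1 Env mediated cell-cell fusion of effector and target cells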
# T1 sequence (Q01196 whole entry, the tested form may be a part): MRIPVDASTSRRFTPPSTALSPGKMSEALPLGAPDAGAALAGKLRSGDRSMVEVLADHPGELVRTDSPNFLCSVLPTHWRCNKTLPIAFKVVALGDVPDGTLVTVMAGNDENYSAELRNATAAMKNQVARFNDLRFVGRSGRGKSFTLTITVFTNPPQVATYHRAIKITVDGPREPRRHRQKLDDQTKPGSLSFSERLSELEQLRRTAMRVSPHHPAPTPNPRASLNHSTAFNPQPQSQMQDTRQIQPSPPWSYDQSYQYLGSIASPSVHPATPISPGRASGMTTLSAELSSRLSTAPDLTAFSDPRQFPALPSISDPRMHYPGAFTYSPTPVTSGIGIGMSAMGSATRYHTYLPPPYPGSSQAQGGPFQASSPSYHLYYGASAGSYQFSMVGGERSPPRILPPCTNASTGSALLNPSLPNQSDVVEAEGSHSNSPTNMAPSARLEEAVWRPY
# T1 sequence (Q13951 whole entry, the tested form may be a part): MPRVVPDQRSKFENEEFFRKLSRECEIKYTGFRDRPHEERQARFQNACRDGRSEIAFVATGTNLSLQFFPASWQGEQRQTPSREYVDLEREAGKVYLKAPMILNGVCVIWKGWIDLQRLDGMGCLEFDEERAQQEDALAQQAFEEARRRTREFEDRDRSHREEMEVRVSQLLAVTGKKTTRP
# T2 sequence (P09923 whole entry): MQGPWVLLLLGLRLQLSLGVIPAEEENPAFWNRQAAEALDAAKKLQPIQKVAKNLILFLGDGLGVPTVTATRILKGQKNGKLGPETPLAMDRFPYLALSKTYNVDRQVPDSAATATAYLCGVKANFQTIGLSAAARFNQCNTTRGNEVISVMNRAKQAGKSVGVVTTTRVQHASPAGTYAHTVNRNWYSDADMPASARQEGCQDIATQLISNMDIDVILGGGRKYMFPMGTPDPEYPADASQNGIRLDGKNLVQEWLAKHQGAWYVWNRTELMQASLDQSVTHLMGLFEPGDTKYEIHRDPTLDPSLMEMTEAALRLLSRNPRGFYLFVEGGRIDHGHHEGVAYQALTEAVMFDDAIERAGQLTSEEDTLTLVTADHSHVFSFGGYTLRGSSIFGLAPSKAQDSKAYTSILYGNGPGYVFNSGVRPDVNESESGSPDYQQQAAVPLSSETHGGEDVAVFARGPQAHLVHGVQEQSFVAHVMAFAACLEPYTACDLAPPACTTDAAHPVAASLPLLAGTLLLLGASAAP
# Cytochrome P450 2C9, sequence (P11712 whole entry): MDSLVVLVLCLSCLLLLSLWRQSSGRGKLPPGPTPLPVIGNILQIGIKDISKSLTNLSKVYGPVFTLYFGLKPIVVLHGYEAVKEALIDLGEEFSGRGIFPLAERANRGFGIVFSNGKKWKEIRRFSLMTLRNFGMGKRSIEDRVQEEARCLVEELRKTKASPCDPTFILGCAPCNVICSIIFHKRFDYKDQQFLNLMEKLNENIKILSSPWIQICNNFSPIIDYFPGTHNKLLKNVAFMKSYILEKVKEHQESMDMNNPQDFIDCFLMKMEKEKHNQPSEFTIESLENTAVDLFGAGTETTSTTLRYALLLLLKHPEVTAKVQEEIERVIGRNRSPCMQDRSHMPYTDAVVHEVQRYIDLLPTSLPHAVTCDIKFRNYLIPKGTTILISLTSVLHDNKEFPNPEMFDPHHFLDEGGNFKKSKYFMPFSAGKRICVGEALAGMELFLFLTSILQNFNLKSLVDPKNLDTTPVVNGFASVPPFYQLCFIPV
# Voltage-gated inwardly rectifying potassium channel KCNH2, sequence (Q12809 whole entry): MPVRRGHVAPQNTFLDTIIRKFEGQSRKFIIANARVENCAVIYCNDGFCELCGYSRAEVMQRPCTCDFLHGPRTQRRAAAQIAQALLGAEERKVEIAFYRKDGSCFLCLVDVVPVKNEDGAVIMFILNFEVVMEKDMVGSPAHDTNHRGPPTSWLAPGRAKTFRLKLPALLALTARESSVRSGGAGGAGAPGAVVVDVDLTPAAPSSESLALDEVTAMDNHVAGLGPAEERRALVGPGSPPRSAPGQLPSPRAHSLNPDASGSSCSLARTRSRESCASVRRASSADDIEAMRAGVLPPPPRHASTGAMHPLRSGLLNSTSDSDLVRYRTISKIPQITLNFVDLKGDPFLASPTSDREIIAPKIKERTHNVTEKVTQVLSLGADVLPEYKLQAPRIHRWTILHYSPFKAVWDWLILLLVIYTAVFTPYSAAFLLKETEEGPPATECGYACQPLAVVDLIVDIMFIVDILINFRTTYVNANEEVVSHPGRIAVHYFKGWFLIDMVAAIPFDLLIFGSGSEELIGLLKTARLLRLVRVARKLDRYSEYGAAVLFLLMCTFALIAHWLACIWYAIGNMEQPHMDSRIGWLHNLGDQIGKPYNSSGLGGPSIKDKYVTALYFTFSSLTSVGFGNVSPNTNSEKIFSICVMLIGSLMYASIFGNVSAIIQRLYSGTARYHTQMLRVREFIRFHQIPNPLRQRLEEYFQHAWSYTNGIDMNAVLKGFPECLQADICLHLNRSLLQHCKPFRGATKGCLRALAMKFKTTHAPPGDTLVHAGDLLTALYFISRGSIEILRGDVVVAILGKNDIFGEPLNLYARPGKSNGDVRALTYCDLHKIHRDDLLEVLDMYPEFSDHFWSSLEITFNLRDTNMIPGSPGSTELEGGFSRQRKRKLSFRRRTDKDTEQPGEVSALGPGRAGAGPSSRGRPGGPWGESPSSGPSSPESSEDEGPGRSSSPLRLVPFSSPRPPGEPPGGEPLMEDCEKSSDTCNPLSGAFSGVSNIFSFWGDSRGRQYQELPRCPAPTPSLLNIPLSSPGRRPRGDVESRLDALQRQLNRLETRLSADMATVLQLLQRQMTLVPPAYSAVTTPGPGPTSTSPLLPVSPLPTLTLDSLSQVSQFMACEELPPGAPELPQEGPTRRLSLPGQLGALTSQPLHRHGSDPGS
# Cytochrome P450 2C19, sequence (P33261 whole entry): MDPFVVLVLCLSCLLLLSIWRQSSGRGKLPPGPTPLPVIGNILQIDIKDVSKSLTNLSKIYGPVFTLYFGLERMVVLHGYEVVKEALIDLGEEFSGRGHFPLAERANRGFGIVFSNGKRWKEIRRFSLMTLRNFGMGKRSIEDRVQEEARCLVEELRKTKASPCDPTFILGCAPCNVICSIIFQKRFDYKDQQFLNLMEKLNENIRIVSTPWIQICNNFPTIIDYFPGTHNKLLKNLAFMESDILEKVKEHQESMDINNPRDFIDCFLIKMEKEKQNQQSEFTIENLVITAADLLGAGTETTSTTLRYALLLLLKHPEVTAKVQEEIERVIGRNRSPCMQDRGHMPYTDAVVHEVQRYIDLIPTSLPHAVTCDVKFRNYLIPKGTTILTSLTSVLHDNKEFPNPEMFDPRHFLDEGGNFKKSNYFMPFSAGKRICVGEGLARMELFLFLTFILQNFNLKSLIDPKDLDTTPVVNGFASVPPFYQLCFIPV
# Intestinal-type alkaline phosphatase (Mus musculus, UniProt P24822), sequence (P24822 whole entry): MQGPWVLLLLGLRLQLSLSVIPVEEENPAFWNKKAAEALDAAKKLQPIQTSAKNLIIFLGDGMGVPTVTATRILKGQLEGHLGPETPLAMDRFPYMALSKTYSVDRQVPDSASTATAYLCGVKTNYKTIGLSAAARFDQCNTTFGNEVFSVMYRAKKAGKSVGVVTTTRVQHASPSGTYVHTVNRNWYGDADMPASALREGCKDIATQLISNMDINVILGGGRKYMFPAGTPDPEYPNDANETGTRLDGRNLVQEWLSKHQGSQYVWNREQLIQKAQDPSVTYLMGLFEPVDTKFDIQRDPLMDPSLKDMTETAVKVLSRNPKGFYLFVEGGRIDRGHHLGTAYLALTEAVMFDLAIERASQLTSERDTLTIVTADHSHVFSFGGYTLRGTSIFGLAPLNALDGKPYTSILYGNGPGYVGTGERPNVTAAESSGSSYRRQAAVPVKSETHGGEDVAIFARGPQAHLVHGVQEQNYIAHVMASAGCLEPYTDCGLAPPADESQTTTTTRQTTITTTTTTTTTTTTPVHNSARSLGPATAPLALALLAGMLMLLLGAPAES
# Tumor necrosis factor, sequence (P01375 whole entry): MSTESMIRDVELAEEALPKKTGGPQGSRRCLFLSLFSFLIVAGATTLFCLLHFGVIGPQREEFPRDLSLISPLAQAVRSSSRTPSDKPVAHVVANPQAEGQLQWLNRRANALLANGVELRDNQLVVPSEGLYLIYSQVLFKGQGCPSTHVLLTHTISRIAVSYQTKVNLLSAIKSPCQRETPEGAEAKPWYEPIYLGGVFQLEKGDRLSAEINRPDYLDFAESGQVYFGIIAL
structure (smiles),measurement,setting,value
CCCOC(=O)c1c(-c2ccccc2)nc(CC)c(C(=O)SCC)c1CCC,AC50,[1],15.8 µM (inconclusive)
same,AC50,Cytochrome P450 2C19,39.8 µM (inconclusive)
same,AC50,Cytochrome P450 2C9,7.94 µM (inconclusive)
same,CC50,[2],35.6 µM (active)
CC(=O)c1cccc(NS(=O)(=O)c2cc(-c3cnc(C4CC4)o3)ccc2C)c1,AC50,[3],25 µM (active)
same,AC50,[4],1.03 µM (active)
O=C(C1=C[C@H](c2ccc(C(F)(F)F)cc2)C[C@H](OCc2ccc(CO)cc2)O1)N1CCN(Cc2ccc3c(c2)OCO3)CC1,EC50,[5],0.265 µM (active)
same,EC50,[6],> 60 µM (not active)
same,AC50,[3],25.8 µM (active)
same,AC50,[4],4.74 µM (active)
CCCc1cc2c(OC(=O)CC)c(-c3ccc(C(=O)OCC)o3)c(=O)oc2cc1OC,IC50,[7],7.94 µM (active)
same,IC50,[8],5.51 µM (active)
CCOc1ccc(CC(=O)NNC(=S)NC2CCCCC2)cc1OCC,EC50,[9],18.7 µM (active)
same,IC50,[10],40.9 µM (active)
same,EC50,[11],17.8 µM (active)
same,EC50,[12],17.2 µM (active)
O=C(c1cccc(OC2CCN(Cc3ccc(F)cc3Cl)CC2)c1)N1CCCC1,IC50,[13],18.2 µM (active)
Cc1cc(C(=O)NC2CCCc3c2cnn3-c2ccc(C(C)(C)C)cc2)nn1C (stereo not drawn),AC50,[14],4.61 µM (active)
same,IC50,[15],1.33 µM (active)
same,IC50,Tumor necrosis factor,1.44 µM (active)
same,IC50,[16],5.2 µM (active)
same,IC50,HEK293,12.2 µM (active)
same,AC50,[17],1.86 µM (active)
